Molecular target: T1, human IDO1 (Homo sapiens, UniProt P14902)
T1 construct: expressed in transfected cells
Experiment: IDO inhibition assay in HEK293 cells stably expressing human IDO1 (kynurenine, Ehrlich reagent)
Type: cell-based
Conditions: 20 hours incubation, read-out: HEK Human IDO-1 Bio Activity
Description: They were cultured in medium (DMEM with 10% FBS) containing 1 mg/ml G418 for two weeks.
The human IDO1/HEK293 cells were seeded at 10,000 cells per 50 μL per well with RPMI/phenol red free media contains 10% FBS in a 384-well black wall clear bottom tissue culture plate (Matrix Technologies LLC) 100 nL of certain concentration of compound was then added to each well using ECHO liquid handling systems. The cells were incubated for 20 hours in 37° C. incubator with 5% CO2.
The compound treatments were stopped by adding trichloroacetic acid (Sigma-Aldrich) to a final concentration at 0.2%. The cell plate was further incubated at 50° C. for 30 minute. The equal volume supernatant (20 μL) and 0.2% (w/v) Ehrlich reagent (4-dimethylaminobenzaldehyde, Sigma-Aldrich) in glacial acetic acid were mixed in a new clear bottom 384-well plate. This plate was then incubated at room temperature for 30 minute. The absorbance at 490 nm was measured on Envision plate reader.

T1 sequence (P14902 whole entry): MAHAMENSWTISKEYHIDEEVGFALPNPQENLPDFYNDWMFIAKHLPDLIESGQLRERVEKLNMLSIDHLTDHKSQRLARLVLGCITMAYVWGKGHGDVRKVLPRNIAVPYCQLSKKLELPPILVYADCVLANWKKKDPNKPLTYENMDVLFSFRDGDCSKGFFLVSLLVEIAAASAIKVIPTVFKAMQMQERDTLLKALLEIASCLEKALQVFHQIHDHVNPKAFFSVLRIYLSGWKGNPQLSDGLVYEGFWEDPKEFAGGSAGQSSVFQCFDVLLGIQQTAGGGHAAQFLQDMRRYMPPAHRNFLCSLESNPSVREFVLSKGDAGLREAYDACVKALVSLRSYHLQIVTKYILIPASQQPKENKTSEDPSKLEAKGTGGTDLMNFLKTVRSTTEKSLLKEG

Compound | IC50 [nM]
CC[C@@H](NC(=O)c1ccc(-c2ccccc2)cc1)[C@H]1CC[C@H](c2cnc3ccccc3c2)CC1 [Example 201, N—((R)-1-((1r,4R)-4-(quinolin-3-yl)cyclohexyl)propyl)-[1,1′-biphenyl]-4-carboxamide] | < 250
CC[C@H](NC(=O)c1ccc(-c2ccccc2)cc1)[C@H]1CC[C@H](c2cnc3ccccc3c2)CC1 [Example 202, N—((S)-1-((1r,4S)-4-(quinolin-3-yl)cyclohexyl)propyl)-[1,1′-biphenyl]-4-carboxamide] | < 50
COc1ccc(-c2ccc(C(=O)N[C@H](C)[C@H]3CC[C@@H](c4ccnc5ccc(F)cc54)CC3)cc2)nc1 [Example 239, N-((R)-1-((1s,4S)-4-(6-fluoroquinolin-4-yl)cyclohexyl)ethyl)-4-(5-methoxypyridin-2-yl)benzamide] | < 50
(R)-1-(cis-4-(6-fluoroquinolin-4- yl)cyclohexyl)-N-methylethanamine [Example 194] | < 50

Source: patent publication US10206893B2, “Immunoregulatory agents” (Flexus Biosciences, Inc., priority 2014, dated 2019)
